In patent US8487108B2, “Piperidinyl carbamate intermediates for the synthesis of aspartic protease inhibitors” (Vitae Pharmaceuticals, Inc., priority 2005, dated 2013) one finds IC50 data, which are given here for 24 molecules.

The test has as its target T1, trypsin-activated recombinant human renin (Homo sapiens, UniProt P00797).
T1 sequence (P00797 67-406): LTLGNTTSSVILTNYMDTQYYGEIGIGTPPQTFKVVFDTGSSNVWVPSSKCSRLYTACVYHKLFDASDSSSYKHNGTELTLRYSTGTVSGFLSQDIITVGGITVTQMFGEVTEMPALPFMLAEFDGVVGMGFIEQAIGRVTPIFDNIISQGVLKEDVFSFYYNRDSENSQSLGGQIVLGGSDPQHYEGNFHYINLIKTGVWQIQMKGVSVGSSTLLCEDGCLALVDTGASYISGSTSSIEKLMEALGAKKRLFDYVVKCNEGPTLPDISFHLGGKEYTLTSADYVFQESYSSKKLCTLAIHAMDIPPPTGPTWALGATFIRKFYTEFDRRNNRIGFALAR
Kind of test: Renin fluorescence assay (internally quenched peptide substrate). Format: biochemical. The following applies: compounds I*. Summed up: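 Compounds (1 nM–10 μM final, DMSO) were mixed with internally quenched angiotensinogen-sequence substrate in pH 7.0 BES/NaCl/BSA buffer, then 0.2-2 nM trypsin-activated human renin added. Rate from the linear fluorescence increase (340 nm excitation, 495 nm emission) over 60-360 min at rt, compared with uninhibited control.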
Consider `CNC[C@H](CC1CCCCC1)NC(=O)N1CCC[C@@H]([C@@H](OCCNC(=O)OC)c2cc(F)cc(F)c2O)C1` [I*-114a, methyl 2-((R)—((R)-1-((S)-1-cyclohexyl-3-(methylamino)propan-2-ylcarbamoyl)piperidin-3-yl)(3,5-difluoro-2-hydroxyphenyl)methoxy)ethylcarbamate], for which the IC50 is less than 0.01 µM.
Next, `CNC[C@H](CC1CCOCC1)NC(=O)N1CCCC([C@@H](OCCNC(=O)OC)c2c(C)ccc(F)c2F)C1` (stereo partly drawn) [I*-115a, methyl 2-((R)-(2,3-difluoro-6-methylphenyl)(1-((S)-1-(methylamino)-3-(tetrahydro-2H-pyran-4-yl)propan-2-ylcarbamoyl)piperidin-3-yl)methoxy)ethylcarbamate]: less than 0.01 µM; `CNC[C@H](CC1CCCCC1)NC(=O)N1CCC[C@@H](C(OCCNC(=O)OC)c2cc(Cl)ccc2F)C1` (stereo partly drawn) [I*-116a, methyl 2-((5-chloro-2-fluorophenyl)((R)-1-((S)-1-cyclohexyl-3-(methylamino)propan-2-ylcarbamoyl)piperidin-3-yl)methoxy)ethylcarbamate]: less than 0.01 µM; `CNC[C@H](CC1CCCCC1)NC(=O)N1CCC[C@@H]([C@@H](OCCNC(=O)OC)c2cc(Cl)ccc2F)C1` [I*-117a, methyl 2-((R)-(5-chloro-2-fluorophenyl)((R)-1-((S)-1-cyclohexyl-3-(methylamino)propan-2-ylcarbamoyl)piperidin-3-yl)methoxy)ethylcarbamate]: less than 0.001 µM.
Next, `CNC[C@H](CC1CCCCC1)NC(=O)N1CCC[C@@H]([C@@H](OCCNC(=O)OC)c2ccc(F)c(Cl)c2)C1` [I*-118a, methyl 2-((R)-(3-chloro-4-fluorophenyl)((R)-1-((S)-1-cyclohexyl-3-(methylamino)propan-2-ylcarbamoyl)piperidin-3-yl)methoxy)ethylcarbamate]: less than 0.001 µM; `CNC[C@H](CC1CCCCC1)NC(=O)N1CCC[C@@H]([C@@H](OCCNC(=O)OC)c2cc(F)c(F)c(F)c2)C1` [I*-119a, methyl 2-((R)-((R)-1-((S)-1-cyclohexyl-3-(methylamino)propan-2-ylcarbamoyl)piperidin-3-yl)(3,4,5-trifluorophenyl)methoxy)ethylcarbamate]: less than 0.01 µM.
In the case of `CNC[C@H](CC1CCC(F)(F)CC1)NC(=O)N1CCC[C@@H]([C@@H](OCCNC(=O)OC)c2cccc(F)c2)C1` [I*-120a, methyl 2-((R)—((R)-1-((S)-1-(4,4-difluorocyclohexyl)-3-(methylamino)propan-2-ylcarbamoyl)piperidin-3-yl)(3-fluorophenyl)methoxy)ethylcarbamate], the IC50 was less than 0.001 µM.
Next, `CNC[C@H](CC1CCOCC1)NC(=O)N1CCC[C@@H]([C@@H](OCCNC(=O)OC)c2cc(F)cc(Cl)c2)C1` [I*-121a, methyl 2-((R)-(3-chloro-5-fluorophenyl)((R)-1-((S)-1-(methylamino)-3-(tetrahydro-2H-pyran-4-yl)propan-2-ylcarbamoyl)piperidin-3-yl)methoxy)ethylcarbamate]: less than 0.02 µM; `COC(=O)NCCO[C@@H](c1cc(F)cc(Cl)c1)[C@@H]1CCCN(C(=O)NC[C@@H](N)C[C@H]2CCCCOC2)C1` [I*-122a, methyl 2-((R)-((R)-1-((S)-2-amino-3-((R)-oxepan-3-yl)propylcarbamoyl)piperidin-3-yl)(3-chloro-5-fluorophenyl)methoxy)ethylcarbamate]: less than 0.01 µM.
Next, `CNC[C@H](CC12CC3CC(CC1C3)C2)NC(=O)N1CCC[C@@H]([C@@H](OCCNC(=O)OC)c2cccc(F)c2)C1` [I*-123a, methyl 2-((R)-((3R)-1-((S)-1-(3-noradamantyl)-3-(methylamino)propan-2-ylcarbamoyl)piperidin-3-yl)(3-fluorophenyl)methoxy)ethylcarbamate]: less than 0.01 µM.
Turning to `CNC[C@H](C[C@H]1C[C@@H](F)[C@@H](F)C1)NC(=O)N1CCC[C@@H]([C@@H](OCCNC(=O)OC)c2cccc(Cl)c2)C1` [I*-124a, methyl 2-((R)-(3-chlorophenyl)((R)-1-((S)-1-((1r,3S,4R)-3,4-difluorocyclopentyl)-3-(methylamino)propan-2-ylcarbamoyl)piperidin-3-yl)methoxy)ethylcarbamate], the IC50 is less than 0.02 µM.
Next, `CNCC(C[C@@H]1C[C@@H](F)[C@@H](F)C1)NC(=O)N1CCC[C@@H]([C@@H](OCCNC(=O)OC)c2cccc(Cl)c2)C1` (stereo partly drawn) [I*-125a, methyl 2-((R)-(3-chlorophenyl)((R)-1-((S)-1-((1s,3R,4S)-3,4-difluorocyclopentyl)-3-(methylamino)propan-2-ylcarbamoyl)piperidin-3-yl)methoxy)ethylcarbamate]: less than 0.01 µM.
Next, `CNC[C@H](CC1CCCCC1)N/C(=N\C#N)N1CCC[C@@H]([C@@H](OCCNC(=O)OC)c2cccc(Cl)c2)C1` [I*-127a, methyl 2-((R)-(3-chlorophenyl)((R)-1-(N′-cyano-N—((S)-1-cyclohexyl-3-(methylamino)propan-2-yl)carbamimidoyl)piperidin-3-yl)methoxy)ethylcarbamate]: less than 0.02 µM; `CNC[C@H](CC1CCCCC1)NC(=O)N1CCC[C@@H]([C@@H](OCCNc2nccs2)c2cccc(Cl)c2)C1` [I*-128a, (R)-3-((R)-(3-chlorophenyl)(2-(thiazol-2-ylamino)ethoxy)methyl)-N-((S)-1-cyclohexyl-3-(methylamino)propan-2-yl)piperidine-1-carboxamide]: more than 0.05 µM; `CNCC(CC12CCC(CC1)CC2)NC(=O)N1CCC[C@@H]([C@@H](OCCNC(=O)OC)c2cccc(Cl)c2)C1` (stereo partly drawn) [I*-129a, methyl 2-((R)-((3R)-1-(1-(bicyclo[2.2.2]octan-1-yl)-3-(methylamino)propan-2-ylcarbamoyl)piperidin-3-yl)(3-chlorophenyl)methoxy)ethylcarbamate]: more than 0.05 µM.
Next, `CC[C@@H](NC)[C@H](CC1CCCCC1)NC(=O)N1CCC[C@@H]([C@@H](OCCNC(=O)OC)c2cccc(Cl)c2)C1` [I*-130a, methyl 2-((R)-(3-chlorophenyl)((R)-1-((2S,3R)-1-cyclohexyl-3-(methylamino)pentan-2-ylcarbamoyl)piperidin-3-yl)methoxy)ethylcarbamate]: less than 0.02 µM; `CNC[C@H](C[C@H]1CCC(=O)N(C)C1)NC(=O)N1CCC[C@@H]([C@@H](OCCNC(=O)OC)c2cccc(Cl)c2)C1` [I*-131a, methyl 2-((R)-(3-chlorophenyl)((R)-1-((S)-1-((R)-1-methyl-6-oxopiperidin-3-yl)-3-(methylamino)propan-2-ylcarbamoyl)piperidin-3-yl)methoxy)ethylcarbamate]: more than 0.05 µM.
`CNCC(C[C@H]1C[C@@H](C)O[C@@H](C)C1)NC(=O)N1CCC[C@@H]([C@@H](OCCNC(=O)OC)c2cccc(Cl)c2)C1` (stereo partly drawn) [I*-132a, methyl 2-((R)-(3-chlorophenyl)((R)-1-((S)-1-((2S,4r,6R)-2,6-dimethyl-tetrahydro-2H-pyran-4-yl)-3-(methylamino)propan-2-ylcarbamoyl)piperidin-3-yl)methoxy)ethylcarbamate]: the half-maximal inhibitory concentration (IC50) was more than 0.05 µM.
Next, `CN[C@H](CNC(=O)N1CCC[C@@H]([C@@H](OCCNC(=O)OC)c2cc(Cl)ccc2C)C1)C[C@H]1CCCCOC1` [I*-133a, methyl 2-((R)-(5-chloro-2-methylphenyl)((R)-1-((S)-2-(methylamino)-3-((R)-oxepan-3-yl)propylcarbamoyl)piperidin-3-yl)methoxy)ethylcarbamate]: less than 0.001 µM; `CNC[C@H](CCC1(OC)CCCC1)NC(=O)N1CCC[C@@H]([C@@H](OCCNC(=O)OC)c2cc(F)cc(F)c2)C1` [I*-134a, methyl 2-((R)-(3,5-difluorophenyl)((R)-1-((S)-4-(1-methoxycyclopentyl)-1-(methylamino)butan-2-ylcarbamoyl)piperidin-3-yl)methoxy)ethylcarbamate]: more than 0.05 µM.
Next, `CNC[C@H](CC1CCCCCC1)NC(=O)N1CCC[C@@H]([C@@H](OCCNC(=O)OC)c2cccc(Cl)c2F)C1` [I*-135a, methyl 2-((R)-(3-chloro-2-fluorophenyl)((R)-1-((S)-1-cycloheptyl-3-(methylamino)propan-2-ylcarbamoyl)piperidin-3-yl)methoxy)ethylcarbamate]: less than 0.01 µM; `CNC[C@H](CC1CCCCC1)NC(=O)N1CCC[C@@H]([C@@H](OCCNC(=O)OC)c2cccc(C(F)(F)F)c2)C1` [I*-136a, methyl 2-((R)-((R)-1-((S)-1-cyclohexyl-3-(methylamino)propan-2-ylcarbamoyl)piperidin-3-yl)(3-(trifluoromethyl)phenyl)methoxy)ethylcarbamate]: less than 0.01 µM.
Next, `CNC[C@H](CC1CCCOCC1)NC(=O)N1CCC[C@@H]([C@@H](OCCNC(=O)OC)c2cccc(Cl)c2F)C1` (stereo partly drawn) [I*-137a, methyl 2-((R)-(3-chloro-2-fluorophenyl)((3R)-1-((S)-1-(methylamino)-3-(oxepan-4-yl)propan-2-ylcarbamoyl)piperidin-3-yl)methoxy)ethylcarbamate]: less than 0.01 µM; `CNC[C@@H](NC(=O)N1CCC[C@@H]([C@@H](OCCNC(=O)OC)c2cccc(Cl)c2F)C1)[C@@H](O)C1CCCCC1` [I*-138a, methyl 2-((R)-(3-chloro-2-fluorophenyl)((R)-1-((1S,2R)-1-cyclohexyl-1-hydroxy-3-(methylamino)propan-2-ylcarbamoyl)piperidin-3-yl)methoxy)ethylcarbamate]: less than 0.01 µM.
